The values that follow come from PubChem BioAssay (NCI).

Each structure is given as a SMILES string. “And” between values parts separate entries of the source, which are not always exact repeats. Identical values can stand only once.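 Five concentrations, 48 hours, 96-well plates. Abbreviation: GI50, concentration required for 50% inhibition of growth. At the TGI there is no net growth.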

For the first assay, the system named is TK-10 renal. Description: inhibition of tumour cell growth, NCI panel, 48 h.
Molecule `COc1cc2c(c(OC)c1)/C(=C/Sc1ccccc1)C(=O)N(C(C)(C)C)C2` showed a TGI above 100 µM.

`CC(=O)C(CN(CC(C)C)CC(C)C)C(c1ccccc1)c1c(O)c2ccccc2oc1=O` (configuration not stated) displayed a TGI above 100 µM.

Another assay concerns LOX IMVI melanoma. Description: inhibition of tumour cell growth, NCI panel, 48 h.
Molecule `CCN1CCC(C)OP1(=O)Cc1ccccc1` (configuration not stated) displayed a TGI above 100 µM.

In the case of `COc1cc2c3c(c1)CCCN3CCC2`, the TGI was above 10 µM.

`CCOC(=O)C1C(c2ccc3c(c2)OCO3)c2c([nH][nH]c2=O)CC1(C)O` (configuration not stated) returned a TGI above 100 µM.

Molecule `CC1(C)C=Cc2c(cc(O)c3c(=O)c4cc(Cl)ccc4[nH]c23)O1` yielded a TGI of 8.11 µM.

Take `CC(=O)c1ccc2c(c1)CC1(C2)Cc2cc3c(cc2C1=O)CCC3` (configuration not stated): the TGI was found to be 40.6 µM.

For the molecule `CSc1nc2c(c(=O)[nH]1)N=C(c1ccc([N+](=O)[O-])cc1)CC(c1ccccc1)N2` (configuration not stated), the TGI is 92.4 µM.

For `CN(C)c1ccc(NN=C2SC(=Nc3ccccc3)C(=Nc3ccccc3)S2)cc1`, the TGI was above 100 µM.

`C=C(Br)CNC(=O)Nc1ccc(Cl)c(Cl)c1` gave a TGI of 43.6 µM.

`CCC(C=O)P1(=O)OC(C)(C)CN1C(C)(C)C` (configuration not stated) gave a TGI above 100 µM.

`NC(N)=NCCCC(NC(=O)c1cccc2c(=O)c3ccccc3[nH]c12)C(=O)O` (configuration not stated) had a TGI above 100 µM.

As for `O=C(NNCC(O)COc1ccccc1)c1ccccc1` (configuration not stated), the TGI is above 100 µM.

`COC(=O)[C@@H]1CC(C(C[N+](=O)[O-])c2ccc(O[Si](C)(C)C(C)(C)C)cc2)C(=O)N1C(=O)OC(C)(C)C` (some centres not stated) displayed a TGI above 100 µM.

Turning to `O=S1(=O)OCCOS(=O)(=O)C1(F)Br`, the TGI was above 100 µM.

Consider `O=C(CCCN1CCC2(CC1)CC(c1ccccc1)OC2=O)c1ccc(F)cc1` (configuration not stated), for which the TGI is 45.1 µM.

With `O=C1NC(=O)C2C(=O)NC(=O)C1C2c1c(Cl)cccc1Cl` (configuration not stated), the TGI was above 57.4 µM.

Regarding `COc1cc2c(c(OC)c1)/C(=C/Sc1ccccc1)C(=O)N(C(C)(C)C)C2`, the TGI was 37.1 µM.

Regarding `CC(=O)C(CN(CC(C)C)CC(C)C)C(c1ccccc1)c1c(O)c2ccccc2oc1=O` (configuration not stated), the TGI was above 100 µM.

The next assay deals with HS 578T breast. Description: inhibition of tumour cell growth, NCI panel, 48 h.
On to `COc1cc2c3c(c1)CCCN3CCC2`, for which the TGI was above 10 µM.

In the case of `CCOC(=O)C1C(c2ccc3c(c2)OCO3)c2c([nH][nH]c2=O)CC1(C)O` (configuration not stated), the TGI was above 100 µM.

For the molecule `CC(=O)c1ccc2c(c1)CC1(C2)Cc2cc3c(cc2C1=O)CCC3` (configuration not stated), the TGI is 89.5 µM.

For the molecule `CN(C)c1ccc(NN=C2SC(=Nc3ccccc3)C(=Nc3ccccc3)S2)cc1`, the TGI is above 100 µM.

The molecule `C=C(Br)CNC(=O)Nc1ccc(Cl)c(Cl)c1` came in with a TGI of 54.3 µM.

Molecule `CC1CC(C)C(C#N)N(C)c2ccccc21` (configuration not stated) yielded a TGI above 100 µM.

Turning to `NC(N)=NCCCC(NC(=O)c1cccc2c(=O)c3ccccc3[nH]c12)C(=O)O` (configuration not stated), the TGI was above 100 µM.

The molecule `COC(=O)[C@@H]1CC(C(C[N+](=O)[O-])c2ccc(O[Si](C)(C)C(C)(C)C)cc2)C(=O)N1C(=O)OC(C)(C)C` (some centres not stated) returned a TGI above 100 µM.

For `O=S1(=O)OCCOS(=O)(=O)C1(F)Br`, the TGI is above 100 µM.

With `O=C(CCCN1CCC2(CC1)CC(c1ccccc1)OC2=O)c1ccc(F)cc1` (configuration not stated), the TGI is 95.2 µM.

Another assay deals with HL-60(TB) leukemia. Description: inhibition of tumour cell growth, NCI panel, 48 h.
Regarding `COc1cc2c3c(c1)CCCN3CCC2`, the TGI was above 10 µM.

On to `CCOC(=O)C1C(c2ccc3c(c2)OCO3)c2c([nH][nH]c2=O)CC1(C)O` (configuration not stated), for which the TGI is above 100 µM.

In turn, `CC1(C)C=Cc2c(cc(O)c3c(=O)c4cc(Cl)ccc4[nH]c23)O1` gave a TGI of 6.6 µM.

Turning to `CC(=O)c1ccc2c(c1)CC1(C2)Cc2cc3c(cc2C1=O)CCC3` (configuration not stated), the TGI was found to be 35.8 µM.

Molecule `CSc1nc2c(c(=O)[nH]1)N=C(c1ccc([N+](=O)[O-])cc1)CC(c1ccccc1)N2` (configuration not stated) gave a TGI of 39.7 µM.

On to `CN(C)c1ccc(NN=C2SC(=Nc3ccccc3)C(=Nc3ccccc3)S2)cc1`, for which the TGI is above 100 µM.

`C=C(Br)CNC(=O)Nc1ccc(Cl)c(Cl)c1` returned a TGI of 38.3 µM.

The molecule `CC1CC(C)C(C#N)N(C)c2ccccc21` (configuration not stated) came in with a TGI of 64.9 µM.

As for `NC(N)=NCCCC(NC(=O)c1cccc2c(=O)c3ccccc3[nH]c12)C(=O)O` (configuration not stated), the TGI was above 100 µM.

Turning to `O=C(NNCC(O)COc1ccccc1)c1ccccc1` (configuration not stated), the TGI was above 100 µM.

Take `COC(=O)[C@@H]1CC(C(C[N+](=O)[O-])c2ccc(O[Si](C)(C)C(C)(C)C)cc2)C(=O)N1C(=O)OC(C)(C)C` (some centres not stated): the GI50 was > 100 µM and 46.2 µM; the TGI is above 100 µM.

In turn, `O=S1(=O)OCCOS(=O)(=O)C1(F)Br` yielded a TGI above 100 µM.

Molecule `O=C(CCCN1CCC2(CC1)CC(c1ccccc1)OC2=O)c1ccc(F)cc1` (configuration not stated) had a TGI above 100 µM.

Regarding `O=C1NC(=O)C2C(=O)NC(=O)C1C2c1c(Cl)cccc1Cl` (configuration not stated), the TGI is above 63.4 µM.

`COc1cc2c(c(OC)c1)/C(=C/Sc1ccccc1)C(=O)N(C(C)(C)C)C2`: the TGI was 59.9 µM.

Molecule `CC(=O)C(CN(CC(C)C)CC(C)C)C(c1ccccc1)c1c(O)c2ccccc2oc1=O` (configuration not stated) yielded a TGI above 100 µM.

The next assay has as its system MALME-3M melanoma. Description: inhibition of tumour cell growth, NCI panel, 48 h.
Regarding `CCN1CCC(C)OP1(=O)Cc1ccccc1` (configuration not stated), the TGI is above 100 µM.

`COc1cc2c3c(c1)CCCN3CCC2` yielded a TGI above 10 µM.

For `CCOC(=O)C1C(c2ccc3c(c2)OCO3)c2c([nH][nH]c2=O)CC1(C)O` (configuration not stated), the TGI was above 100 µM.

Take `CC1(C)C=Cc2c(cc(O)c3c(=O)c4cc(Cl)ccc4[nH]c23)O1`: the TGI is 7.5 µM.

Consider `CC(=O)c1ccc2c(c1)CC1(C2)Cc2cc3c(cc2C1=O)CCC3` (configuration not stated), for which the TGI stood at 39.3 µM.

For the molecule `CSc1nc2c(c(=O)[nH]1)N=C(c1ccc([N+](=O)[O-])cc1)CC(c1ccccc1)N2` (configuration not stated), the TGI is above 100 µM.

`CN(C)c1ccc(NN=C2SC(=Nc3ccccc3)C(=Nc3ccccc3)S2)cc1` displayed a TGI above 100 µM.

`C=C(Br)CNC(=O)Nc1ccc(Cl)c(Cl)c1` displayed a TGI of 48.6 µM.

The molecule `CCC(C=O)P1(=O)OC(C)(C)CN1C(C)(C)C` (configuration not stated) displayed a TGI above 100 µM.

In the case of `CC1CC(C)C(C#N)N(C)c2ccccc21` (configuration not stated), the TGI is above 100 µM.

The molecule `NC(N)=NCCCC(NC(=O)c1cccc2c(=O)c3ccccc3[nH]c12)C(=O)O` (configuration not stated) displayed a TGI above 100 µM.

In turn, `O=C(NNCC(O)COc1ccccc1)c1ccccc1` (configuration not stated) registered a TGI above 100 µM.

Regarding `COC(=O)[C@@H]1CC(C(C[N+](=O)[O-])c2ccc(O[Si](C)(C)C(C)(C)C)cc2)C(=O)N1C(=O)OC(C)(C)C` (some centres not stated), the TGI was above 100 µM.

`O=S1(=O)OCCOS(=O)(=O)C1(F)Br` returned a TGI above 100 µM.

In turn, `O=C(CCCN1CCC2(CC1)CC(c1ccccc1)OC2=O)c1ccc(F)cc1` (configuration not stated) returned a TGI of 44 µM.

In turn, `O=C1NC(=O)C2C(=O)NC(=O)C1C2c1c(Cl)cccc1Cl` (configuration not stated) yielded a TGI above 100 µM.

Molecule `CC(=O)C(CN(CC(C)C)CC(C)C)C(c1ccccc1)c1c(O)c2ccccc2oc1=O` (configuration not stated) displayed a TGI above 100 µM.

The test system of a further assay is NCI-H23 lung. Description: inhibition of tumour cell growth, NCI panel, 48 h.
`CCN1CCC(C)OP1(=O)Cc1ccccc1` (configuration not stated) gave a TGI above 100 µM.

The molecule `COc1cc2c3c(c1)CCCN3CCC2` displayed a TGI above 10 µM.

`CCOC(=O)C1C(c2ccc3c(c2)OCO3)c2c([nH][nH]c2=O)CC1(C)O` (configuration not stated): the TGI was above 100 µM.

Turning to `CC1(C)C=Cc2c(cc(O)c3c(=O)c4cc(Cl)ccc4[nH]c23)O1`, the TGI is 6.54 µM.
